This passage reports IC50 results from patent US10577308B2, “Sodium channel modulators” (The Florey Institute of Neuroscience and Mental Health, priority 2015, dated 2020).

One assay has as its target hNav1.6 (Homo sapiens (Human), UniProt Q9UQD0). As to the kind of experiment: Automated patch clamp (IonWorks Quattro) block of hNav1.6 channels in CHO cells. The format is cell-based. The text has this: (§1) FIG. 1 depicts the voltage sequence used to measure inhibitory activity of compounds as described in Example 3. An automated patch clamp screening assay was used to measure the inhibitory effect (potency) of compounds in three conformational states of the sodium channel: (1) the tonic state (TP1); (2) the frequency-dependent (10 Hz) state (TP11) and (3) the inactivated state (TP12).
(§2) Test Protocol for Determining the Potency of Compounds on Nav1.2 and Nav1.6 Subtypes of Voltage-Gated Sodium Ion Channels Expressed in Mammalian Cells
(§3) Cell culture procedures: Chinese hamster ovary (CHO) cells were stably transfected with the cDNA sequence of either the human SCN2A or SCN8A genes to create hNav1.2 or hNav1.6 cells respectively. The cell lines were cultured in Ham's F-12 medium supplemented with 10% fetal bovine serum and antibiotics in a tissue incubator at 37° C. under a humidified air/CO2 mixture (95/5 v/v). On the day of the experiment, cells were washed twice with Hank's balanced salt solution, treated with trypsin, and resuspended in fresh culture media at a density of 4−6×10^6 cells in 20 ml. Immediately before placing in the IonWorks Quattro instrument, cells were washed in Hank's balanced salt solution to remove culture medium and re-suspended in 3 ml of Hank's balanced salt solution.
(§4) Automated patch clamp recordings of cells using the IonWorks Quattro Instrument: The assay used a 384 microwell plate, which enabled 20 compounds to be studied at four different concentrations in quadruplicate as well as allowing a vehicle control group and a positive control group using mexiletine at 8 different concentrations. Cells were added to the wells of the Population Patch Clamp planar electrode using a 48-channel pipettor in a volume of 6 μL, per well. After 5 minutes incubation at ambient temperature with compounds or vehicle, membrane currents were recorded using the patch clamp amplifier. The pulse pattern was repeated twice, before and after compound addition and peak current amplitudes were measured at three test pulses, TP1, TP11 and TP12 to measure Tonic Block, 10 Hz Frequency-dependent Block and Inactivation State Block, respectively.
(§5) Data analysis: Data acquisition and analyses were carried out using the IonWorks Quattro system operation software which uses an algorithm to correct data for leak currents. Concentration-response curves were fitted by non-linear least squares regression allowing calculation of an IC50 value (μM), being the concentration of the compound producing half-maximal inhibition.
On the technique in general: In patch-clamp work, channel activity is measured electrically.

The next assay has as its target hNav1.2 (Homo sapiens (Human), UniProt Q99250). As to the kind of experiment: Automated patch clamp (IonWorks Quattro) block of hNav1.2 channels in CHO cells. Format: cell-based.
Description: as §1, §2, §3, §4, §5

Where [1] appears, read: 10 Hz frequency-dependent block (TP11), read-out: IC50 Nav1.6 10 Hz block.
[2] abbreviates: Inactivated state block (TP12), read-out: IC50 Nav1.6 Inactivated state block.
[3] abbreviates: Tonic block (TP1), read-out: IC50 Nav1.6 Tonic block.
[4] abbreviates: 10 Hz frequency-dependent block (TP11), read-out: IC50 Nav1.2 10 Hz block.
The mark [5] stands for this setting: Inactivated state block (TP12), read-out: IC50 Nav1.2 Inactivated state block.
Where [6] appears, read: Tonic block (TP1), read-out: IC50 Nav1.2 Tonic block.

Where two headings read alike, the source gives them in different places. Some results are limits rather than exact numbers.

hNav1.2, sequence (Q99250 whole entry): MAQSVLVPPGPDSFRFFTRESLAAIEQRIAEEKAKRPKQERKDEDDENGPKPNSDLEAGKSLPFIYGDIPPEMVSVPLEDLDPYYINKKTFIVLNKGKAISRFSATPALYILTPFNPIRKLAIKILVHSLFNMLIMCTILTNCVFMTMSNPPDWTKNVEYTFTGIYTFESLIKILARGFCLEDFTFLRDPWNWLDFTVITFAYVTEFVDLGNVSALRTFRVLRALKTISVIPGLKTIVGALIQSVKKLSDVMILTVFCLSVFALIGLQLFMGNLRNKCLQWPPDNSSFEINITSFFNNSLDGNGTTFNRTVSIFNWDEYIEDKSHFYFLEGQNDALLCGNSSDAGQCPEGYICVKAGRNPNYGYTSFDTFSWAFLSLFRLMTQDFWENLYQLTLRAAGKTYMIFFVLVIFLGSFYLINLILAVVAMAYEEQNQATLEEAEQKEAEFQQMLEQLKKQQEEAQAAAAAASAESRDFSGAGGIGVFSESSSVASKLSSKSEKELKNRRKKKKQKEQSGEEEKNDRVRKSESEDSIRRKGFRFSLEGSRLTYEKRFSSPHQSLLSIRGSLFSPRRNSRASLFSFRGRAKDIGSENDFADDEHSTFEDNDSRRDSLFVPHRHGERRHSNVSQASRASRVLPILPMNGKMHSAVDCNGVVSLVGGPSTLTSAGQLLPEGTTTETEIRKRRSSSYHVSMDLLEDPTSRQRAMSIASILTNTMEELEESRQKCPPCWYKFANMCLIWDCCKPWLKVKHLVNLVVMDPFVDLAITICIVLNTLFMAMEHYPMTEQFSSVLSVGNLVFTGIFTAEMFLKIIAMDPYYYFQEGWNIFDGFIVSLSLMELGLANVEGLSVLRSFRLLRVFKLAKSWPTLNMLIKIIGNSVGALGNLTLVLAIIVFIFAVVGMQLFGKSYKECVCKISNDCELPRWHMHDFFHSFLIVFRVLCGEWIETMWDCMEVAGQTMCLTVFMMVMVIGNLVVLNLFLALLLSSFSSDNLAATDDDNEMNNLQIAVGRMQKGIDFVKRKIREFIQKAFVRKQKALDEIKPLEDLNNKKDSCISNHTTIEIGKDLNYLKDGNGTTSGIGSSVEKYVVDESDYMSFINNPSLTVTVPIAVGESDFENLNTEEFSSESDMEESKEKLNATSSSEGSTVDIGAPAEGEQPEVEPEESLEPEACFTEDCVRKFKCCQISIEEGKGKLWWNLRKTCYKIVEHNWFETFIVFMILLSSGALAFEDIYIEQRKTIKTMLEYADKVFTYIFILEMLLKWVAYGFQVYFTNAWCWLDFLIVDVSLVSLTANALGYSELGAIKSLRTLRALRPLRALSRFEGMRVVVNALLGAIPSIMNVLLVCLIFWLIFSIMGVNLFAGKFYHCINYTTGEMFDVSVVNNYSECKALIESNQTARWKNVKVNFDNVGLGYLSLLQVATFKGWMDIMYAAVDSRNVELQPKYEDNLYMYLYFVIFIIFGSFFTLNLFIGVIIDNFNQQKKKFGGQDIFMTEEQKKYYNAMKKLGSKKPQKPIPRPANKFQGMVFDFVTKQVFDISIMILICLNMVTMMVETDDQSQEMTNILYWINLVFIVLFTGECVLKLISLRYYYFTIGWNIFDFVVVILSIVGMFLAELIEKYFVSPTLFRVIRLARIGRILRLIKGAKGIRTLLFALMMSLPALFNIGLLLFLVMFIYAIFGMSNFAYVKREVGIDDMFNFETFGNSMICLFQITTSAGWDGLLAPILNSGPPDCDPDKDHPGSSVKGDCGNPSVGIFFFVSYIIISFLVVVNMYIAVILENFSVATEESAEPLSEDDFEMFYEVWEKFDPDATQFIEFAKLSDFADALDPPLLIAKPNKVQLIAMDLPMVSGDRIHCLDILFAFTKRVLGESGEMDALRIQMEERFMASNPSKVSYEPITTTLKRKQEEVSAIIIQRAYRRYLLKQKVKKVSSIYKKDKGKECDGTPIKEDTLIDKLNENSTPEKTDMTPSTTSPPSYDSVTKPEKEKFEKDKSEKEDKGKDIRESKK
hNav1.6, sequence (Q9UQD0 whole entry): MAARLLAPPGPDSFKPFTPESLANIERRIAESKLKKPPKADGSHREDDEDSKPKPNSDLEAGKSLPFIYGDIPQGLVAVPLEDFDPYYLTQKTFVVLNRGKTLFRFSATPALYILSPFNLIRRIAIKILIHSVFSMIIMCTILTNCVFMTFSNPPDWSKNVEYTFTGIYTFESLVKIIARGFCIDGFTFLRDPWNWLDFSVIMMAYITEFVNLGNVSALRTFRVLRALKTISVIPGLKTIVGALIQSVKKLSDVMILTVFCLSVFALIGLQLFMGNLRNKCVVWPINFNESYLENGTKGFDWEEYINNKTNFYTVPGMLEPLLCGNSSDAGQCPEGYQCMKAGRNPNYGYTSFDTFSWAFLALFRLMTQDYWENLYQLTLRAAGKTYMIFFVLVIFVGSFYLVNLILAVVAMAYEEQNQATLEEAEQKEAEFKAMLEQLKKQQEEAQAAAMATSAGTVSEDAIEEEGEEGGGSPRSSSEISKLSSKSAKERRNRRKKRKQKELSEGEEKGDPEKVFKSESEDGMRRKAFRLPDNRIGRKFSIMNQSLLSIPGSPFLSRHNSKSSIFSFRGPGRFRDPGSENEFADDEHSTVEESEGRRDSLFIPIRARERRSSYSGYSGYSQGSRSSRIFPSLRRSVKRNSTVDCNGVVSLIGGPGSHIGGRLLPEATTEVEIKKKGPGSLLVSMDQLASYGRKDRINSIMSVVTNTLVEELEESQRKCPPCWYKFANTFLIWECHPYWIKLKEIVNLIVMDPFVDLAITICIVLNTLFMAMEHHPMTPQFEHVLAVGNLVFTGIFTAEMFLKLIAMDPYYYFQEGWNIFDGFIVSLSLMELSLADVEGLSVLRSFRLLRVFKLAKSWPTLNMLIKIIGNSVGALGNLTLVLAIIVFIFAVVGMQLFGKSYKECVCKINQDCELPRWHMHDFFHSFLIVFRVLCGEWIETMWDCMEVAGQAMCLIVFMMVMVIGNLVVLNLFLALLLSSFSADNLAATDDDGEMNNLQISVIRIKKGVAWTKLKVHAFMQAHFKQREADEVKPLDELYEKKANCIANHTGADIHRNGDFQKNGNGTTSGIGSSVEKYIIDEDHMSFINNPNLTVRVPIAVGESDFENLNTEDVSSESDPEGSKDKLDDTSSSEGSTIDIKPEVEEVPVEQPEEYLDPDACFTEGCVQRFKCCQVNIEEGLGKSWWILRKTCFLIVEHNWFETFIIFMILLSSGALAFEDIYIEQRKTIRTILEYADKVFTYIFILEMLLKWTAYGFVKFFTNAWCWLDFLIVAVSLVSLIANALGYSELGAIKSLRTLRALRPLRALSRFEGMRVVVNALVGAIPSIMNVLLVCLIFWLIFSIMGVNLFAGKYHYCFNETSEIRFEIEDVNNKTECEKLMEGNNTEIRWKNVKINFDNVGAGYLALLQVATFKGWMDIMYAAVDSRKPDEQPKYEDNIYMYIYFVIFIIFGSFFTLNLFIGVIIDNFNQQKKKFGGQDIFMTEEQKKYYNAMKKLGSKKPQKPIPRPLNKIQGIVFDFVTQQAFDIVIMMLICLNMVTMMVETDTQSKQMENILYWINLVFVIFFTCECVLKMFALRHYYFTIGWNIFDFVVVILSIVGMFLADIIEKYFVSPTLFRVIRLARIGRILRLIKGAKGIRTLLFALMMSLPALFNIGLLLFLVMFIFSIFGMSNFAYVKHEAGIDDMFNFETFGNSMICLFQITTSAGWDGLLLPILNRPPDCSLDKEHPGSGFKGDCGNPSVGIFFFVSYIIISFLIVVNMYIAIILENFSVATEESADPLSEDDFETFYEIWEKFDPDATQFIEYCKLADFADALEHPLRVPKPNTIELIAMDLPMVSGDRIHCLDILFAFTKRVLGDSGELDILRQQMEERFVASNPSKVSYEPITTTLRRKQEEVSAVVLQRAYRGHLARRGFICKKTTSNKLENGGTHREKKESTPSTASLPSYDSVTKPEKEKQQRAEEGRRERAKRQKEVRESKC

`Cc1cccc(C)c1OCCCNCc1noc(C(C)C)n1` [Compound 538, 3-(2,6-Dimethylphenoxy)-N-((5-isopropyl-1,2,4-oxadiazol-3-yl)methyl)propan-1-amine]: the IC50 at hNav1.6 (setting [1]) is > 10 µM; on hNav1.6 (setting [2]), > 10 µM; at hNav1.6 (setting [3]) it was > 10 µM; at hNav1.2 (setting [4]) it was > 10 µM; at hNav1.2 (setting [5]), ~10.2 µM; on hNav1.2 (setting [6]), > 10 µM.

Turning to `Cc1cccc(C)c1OCCCNCc1ccc(OC(F)(F)F)cc1` [Compound 531, 3-(2,6-Dimethylphenoxy)-N-(4-(trifluoromethoxy)benzyl)propan-1-amine], the 50% inhibitory concentration (IC50) at hNav1.6 (setting [1]) amounted to 56.3 µM; at hNav1.6 (setting [2]), 40.9 µM; at hNav1.6 (setting [3]), 138 µM; on hNav1.2 (setting [4]), 3.6 µM; at hNav1.2 (setting [5]), 1.4 µM; on hNav1.2 (setting [6]), 12.5 µM.

On to `Cc1cccc(C)c1OCCCNCc1cccc(-c2ccccc2)c1` [Compound 535, N-(Biphenyl-3-ylmethyl)-3-(2,6-dimethylphenoxy)propan-1-amine], for which the IC50 is > 1000 µM on hNav1.6 (setting [1]); > 1000 µM at hNav1.6 (setting [2]); > 1000 µM at hNav1.6 (setting [3]); 20.7 µM at hNav1.2 (setting [4]); 7 µM on hNav1.2 (setting [5]); 66.5 µM at hNav1.2 (setting [6]).

On to “3-((3-(2,6-Dimethylphenoxy)propylamino)methyl)benzonitrile [Compound 524]”, for which the IC50 at hNav1.6 (setting [1]) was 3.9 µM; at hNav1.6 (setting [2]) it was > 10 µM; on hNav1.6 (setting [3]) it was 7.8 µM; at hNav1.2 (setting [4]), 9.6 µM; at hNav1.2 (setting [5]) it was > 10 µM; on hNav1.2 (setting [6]), > 10 µM.

In the case of `Cc1cccc(C)c1OCCCNCc1cccc(-c2cncnc2)c1` [Compound 558, 3-(2,6-Dimethylphenoxy)-N-(3-(pyrimidin-5-yl)benzyl)propan-1-amine], the IC50 on hNav1.6 (setting [1]) was determined as 0.4 µM; on hNav1.6 (setting [2]), 0.3 µM; at hNav1.6 (setting [3]) it was 0.4 µM; at hNav1.2 (setting [4]) it was 0.6 µM; at hNav1.2 (setting [5]), 0.2 µM; on hNav1.2 (setting [6]), 1.2 µM.

One may read the IC50 as the point on the concentration scale where inhibition reaches its midpoint.
